Earlier results, collected in patent US4672107A, “Cell growth inhibitor and method” (Inbex, Inc., priority 1985, dated 1987).

Tested on: human embryonic palatal mesenchymal cells
Conditions: Yoneda and Pratt, Science 1981

## Epidermal Growth Factor (NSDSECPLSHDGYCLHDGVCMYIEALDKYACNCVVGYIGERCQYRDLKWWELR; Epidermal growth factor; UniProt P01133 971-1023, looked up) [Epidermal Growth Factor (EGF)]
  stimulation of incorporation of 3[H]-thymidine into newly synthesized DNA: a little more than twofold
